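1) Cells in 96-well plates. 2) Compound, 48 h, 5 concentrations. 3) Linear interpolation between surrounding doses. 4) Unreached endpoint = highest concentration. GI50 = concentration required for 50% inhibition of growth. TGI is the concentration that stops growth completely.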 Where a SMILES comes first, the peptide text is derived from it. The star is where a group is joined. Boc = CC(C)(C)OC(=O)*
Tests used:
Test in all cases: inhibition of tumour cell growth, NCI panel, 48 h
TK-10 renal = system: TK-10 renal
SR leukemia = system: SR leukemia
SN12C renal = system: SN12C renal
786-0 renal = system: 786-0 renal
HT29 colon = system: HT29 colon
SK-OV-3 ovarian = system: SK-OV-3 ovarian
RPMI-8226 leukemia = system: RPMI-8226 leukemia
SK-MEL-2 melanoma = system: SK-MEL-2 melanoma

Row | SMILES | TGI (TK-10 renal) [µM] | TGI (SR leukemia) [µM] | TGI (SN12C renal) [µM] | TGI (786-0 renal) [µM] | TGI (HT29 colon) [µM] | TGI (SK-OV-3 ovarian) [µM] | TGI (RPMI-8226 leukemia) [µM] | TGI (SK-MEL-2 melanoma) [µM] | GI50 (TK-10 renal) [µM] | GI50 (SR leukemia) [µM] | GI50 (SN12C renal) [µM] | GI50 (SK-MEL-2 melanoma) [µM] | GI50 (HT29 colon) [µM] | GI50 (SK-OV-3 ovarian) [µM] | GI50 (RPMI-8226 leukemia) [µM]
1 | CC(C)(C)OC(=O)NCC(=O)NCC(=O)NCC(=O)NCC(=O)O (Boc-GGGG-OH) | > 100 | > 100 | > 100 | > 100 | > 100 | > 100 | > 100 |  |  |  |  |  |  |  | 
2 | COc1ccc2cc3c4cc5c(cc4cc[n+]3cc2c1OC)OCO5 | 83.2 |  | 54.2 | > 100 | > 100 | > 84.9 | 35.1 | > 57.8 |  |  |  |  |  |  | 
3 | C=CC[C@]12C[C@@H](C(=O)OC)N(C(=O)OC)[C@H]1N(S(=O)(=O)c1ccccc1)c1ccccc12 | > 100 | > 100 | > 100 | > 100 | > 100 | > 100 | > 100 | > 100 |  |  |  |  |  |  | 
4 | CC(=O)N/N=C1\NC(=O)C[C@H]2[C@@H]3CC=C4C[C@@H](OC(C)=O)CC[C@]4(C)[C@H]3CC[C@]12C | 41.7 |  | > 100 | 43.1 | > 100 | 53.7 | > 100 | > 100 |  |  |  |  |  |  | 
5 | CC(C)/C(Cl)=N\OC(=O)Nc1ccc(C#N)cc1 | 12.9 | > 25.6 | 26.6 | 11.8 | 43 | 31.1 | 6.88 | 25.6 |  |  |  |  |  |  | 
6 | CSc1c(C#N)c(N)n2c1C(=O)N(c1ccccc1)C2=S | > 100 |  | > 100 | > 100 | > 100 | > 100 |  |  |  |  |  |  |  |  | 
7 | CCN(CC)CCOc1ccc(N2C(=O)c3cc(OC)c(OC)cc3C2=O)cc1 | > 100 | > 100 | > 100 | > 100 | > 100 | > 100 | > 100 | > 100 |  |  |  |  |  |  | 
8 | N#CC(C#N)=CNC(=S)c1ccncc1 |  | > 100 | > 100 | > 100 | > 100 | > 100 | > 100 | > 100 |  |  |  |  |  |  | 
9 | CC1(C)N=C(C(N)=O)c2ncn(CCCO)c2N1 | > 100 | > 100 | > 100 | > 100 | > 100 | > 100 | > 100 |  |  |  |  |  |  |  | 
10 | O=c1c2ccccc2nc2[nH][nH]c(=S)n12 | > 100 | > 100 | > 100 | > 100 | > 100 | > 100 | > 100 | > 100 |  |  |  |  |  |  | 
11 | Nc1c(-c2cccc3ccccc23)c2ccc([N+](=O)[O-])cc2c(=O)n1-c1nc2ccccc2s1 | > 100 | > 100 | > 100 | > 36.2 | 19.9 | 14.8 | > 49.6 | 19.2 |  |  |  |  |  |  | 
12 | CCCn1c(CN(Cc2nc3ccccc3n2CCC)Cc2nc3ccccc3n2CCC)nc2ccccc21 | > 100 | 11.8 | 6.81 | > 32.3 | > 41.1 | > 100 | 5.36 | 35.4 |  |  |  |  |  |  | 
13 | CCCCC1c2c([nH]c3ccccc23)C2C(=O)N(c3ccc(OC)cc3)C(=O)C2C1CCC (stereo not drawn) | > 10 | 8.22 | 4.04 | > 10 | 8.52 | > 10 | 8.99 | > 10 |  |  |  |  |  |  | 
14 | Cc1csc(-c2cn(C)c3c2C(=O)C(N)=CC3=O)n1 | > 100 | 19.5 | > 100 | > 100 | > 67.1 | > 100 | > 22.8 | > 82.7 |  |  |  |  |  |  | 
15 | Cc1c2c(n(CCc3ccc(Cl)cc3)c1C)NN=C(C#N)S2(=O)=O | > 100 | > 100 | > 100 | > 100 | > 100 | > 100 | > 100 | > 100 |  |  |  |  |  |  | 
16 | O=C(CCCN1CCC2(CC1)CC(=O)N(N1CCOCC1)C2=O)c1ccccc1 | > 100 | > 100 | > 100 | > 100 | > 100 | > 100 | > 100 |  |  |  |  |  |  |  | 
17 | COc1ccc2cc(-c3ccc(-c4ccc(C(=N)N)s4)s3)ccc2c1 | 29.2 | 3.38 | 4.65 |  | 3.27 | 33.2 | 5.06 | 6.7 | 14.2 | 0.851 | 2.12 | 2.66 | 1.72 | 17.9 | 2.16
18 | CN(C)c1nc(=NCc2ccccc2)ss1 | > 10 | 6.37 | > 10 | > 10 | > 10 | > 10 | > 10 |  |  |  |  |  |  |  | 
19 | COc1ccc2nc3cc(Cl)ccc3c(NCCCNCCCNc3c4ccc(Cl)cc4nc4ccc(OC)cc34)c2c1 | 0.588 | 2.73 | 0.285 |  | 0.231 | 0.384 | 27.7 | 0.15 |  |  |  |  |  |  | 
20 | CCOC(=N)n1c(=O)n(C2=NCCN2)c2ccccc21 | > 100 | > 100 | > 100 | > 100 | > 100 | > 100 |  |  |  |  |  |  |  |  | 
21 | CCOc1cc(C2CC(c3ccc(NS(=O)(=O)c4cc([N+](=O)[O-])ccc4C)cc3)=NN2C(=O)c2ccccc2)ccc1O (stereo not drawn) | 54.2 | > 100 | 58.9 | 46.7 | > 100 | 54.5 | > 100 | 30.9 |  |  |  |  |  |  | 
22 | CC(C)COP(=O)(OCC(C)C)C(NS(=O)(=O)c1ccccc1)(C(F)(F)F)C(F)(F)F | 15.6 | 38.1 | 18.8 | 25.7 | 25.4 | 29.9 | 6.46 | 14.3 |  |  |  |  |  |  | 
23 | C/C(CC1C2CCCC1C2)=N\NC(N)=O (stereo not drawn) | > 100 | > 100 | > 100 | > 100 | > 100 | > 100 | > 100 | > 100 |  |  |  |  |  |  | 
24 | O=c1c2cc3c(cc2[nH]c2ncccc12)OCO3 | > 10 | > 10 | > 10 | > 10 | > 10 | > 10 | > 10 | > 10 |  |  |  |  |  |  | 
25 | COC(=O)[C@]12CC[C@H]3CN(C(=O)OCc4ccccc4)[C@H]([C@H]31)[C@H](c1ccco1)N2S(=O)(=O)c1ccc(C)cc1 | 90.2 | 81 | 39 | 37.6 | 58.7 | > 100 | 35.9 | 49.3 |  |  |  |  |  |  | 
